By IC50 is commonly meant the point on the concentration scale where inhibition reaches its midpoint. As a reminder, the Papp A→B is how fast a substance crosses the layer from the apical side. By Papp B→A is commonly meant how fast a substance crosses the layer from the basolateral side.

For series [1], the target named is T1, death-associated protein kinase-related apoptosis-inducing protein kinase 1 (DRAK1) (Homo sapiens, UniProt Q9UEE5).
T1 sequence (Q9UEE5 1-414): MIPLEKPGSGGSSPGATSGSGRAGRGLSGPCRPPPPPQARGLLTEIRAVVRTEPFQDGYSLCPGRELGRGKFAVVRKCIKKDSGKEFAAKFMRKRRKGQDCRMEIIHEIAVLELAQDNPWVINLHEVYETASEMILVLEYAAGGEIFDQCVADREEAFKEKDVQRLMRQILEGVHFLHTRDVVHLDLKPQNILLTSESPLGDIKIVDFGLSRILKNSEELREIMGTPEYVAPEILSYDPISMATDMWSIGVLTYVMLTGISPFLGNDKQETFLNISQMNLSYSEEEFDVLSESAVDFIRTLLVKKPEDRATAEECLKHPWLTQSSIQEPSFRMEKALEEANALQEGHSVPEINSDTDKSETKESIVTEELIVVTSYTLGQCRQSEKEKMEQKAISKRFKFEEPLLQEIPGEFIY
Put plainly: Off-target kinase screen DRAK1. Type of series: biochemical. The following applies: 1 μM test compound. An excerpt: (§1) These kinases were chosen because they are the only known off-target hit kinases for eFT508. These assays were done using recombinant human kinases (CLK4, DRAK1 and PKG2) in a substrate phosphorylation assay. % activity remaining after MNK inhibitor treatment is indicated in Table 12.

In series [2] the target is T2, protein kinase G 2 (PKG2) (Homo sapiens, UniProt Q13237).
T2 sequence (Q13237 1-762): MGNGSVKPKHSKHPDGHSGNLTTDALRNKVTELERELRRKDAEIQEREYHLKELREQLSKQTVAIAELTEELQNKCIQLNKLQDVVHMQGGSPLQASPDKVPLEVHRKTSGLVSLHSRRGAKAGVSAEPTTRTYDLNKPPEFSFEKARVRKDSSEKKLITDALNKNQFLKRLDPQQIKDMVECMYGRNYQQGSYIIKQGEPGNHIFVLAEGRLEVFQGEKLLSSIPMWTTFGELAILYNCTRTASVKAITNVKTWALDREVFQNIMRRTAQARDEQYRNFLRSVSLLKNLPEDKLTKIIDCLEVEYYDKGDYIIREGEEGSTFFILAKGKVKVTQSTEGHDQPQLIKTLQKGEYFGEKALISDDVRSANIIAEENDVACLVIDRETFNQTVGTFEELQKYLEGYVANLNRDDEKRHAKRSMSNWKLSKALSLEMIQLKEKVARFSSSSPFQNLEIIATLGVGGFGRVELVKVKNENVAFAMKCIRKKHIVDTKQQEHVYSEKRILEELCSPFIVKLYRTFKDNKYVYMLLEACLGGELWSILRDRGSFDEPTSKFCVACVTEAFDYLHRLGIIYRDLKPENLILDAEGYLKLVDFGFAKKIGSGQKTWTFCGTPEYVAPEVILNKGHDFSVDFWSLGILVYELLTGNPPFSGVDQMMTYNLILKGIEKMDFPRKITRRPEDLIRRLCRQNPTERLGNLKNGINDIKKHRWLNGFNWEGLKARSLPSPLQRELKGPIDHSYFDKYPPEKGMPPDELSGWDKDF
Put plainly: Off-target kinase screen PKG2. It counts as biochemical. The note with it: 1 μM test compound.
Excerpt: as §1

For series [3], the system named is eIF4E phosphorylation at Serine 209 in Karpas 299. Put plainly: eIF4E phosphorylation in Karpas 299 cells (sandwich ELISA). It counts as cell-based. The following applies: Homo sapiens, read-out: Karpas 299 cell IC50. The method, then: The ability of MNK inhibitors described herein to inhibit eIF4E phosphorylation at Serine 209 in Karpas 299, Human Non-Hodgkin's Ki-positive Large Cell Lymphoma cell line was tested by sandwich enzyme linked immune-absorbance assay.

Series [4] deals with Cdc2-like kinase 4 (CLK4) (Homo sapiens, UniProt Q9HAZ1). Put plainly: Off-target kinase screen CLK4. The following applies: 1 μM test compound. It counts as biochemical.
Chain of Cdc2-like kinase 4 (CLK4) (Q9HAZ1 whole entry): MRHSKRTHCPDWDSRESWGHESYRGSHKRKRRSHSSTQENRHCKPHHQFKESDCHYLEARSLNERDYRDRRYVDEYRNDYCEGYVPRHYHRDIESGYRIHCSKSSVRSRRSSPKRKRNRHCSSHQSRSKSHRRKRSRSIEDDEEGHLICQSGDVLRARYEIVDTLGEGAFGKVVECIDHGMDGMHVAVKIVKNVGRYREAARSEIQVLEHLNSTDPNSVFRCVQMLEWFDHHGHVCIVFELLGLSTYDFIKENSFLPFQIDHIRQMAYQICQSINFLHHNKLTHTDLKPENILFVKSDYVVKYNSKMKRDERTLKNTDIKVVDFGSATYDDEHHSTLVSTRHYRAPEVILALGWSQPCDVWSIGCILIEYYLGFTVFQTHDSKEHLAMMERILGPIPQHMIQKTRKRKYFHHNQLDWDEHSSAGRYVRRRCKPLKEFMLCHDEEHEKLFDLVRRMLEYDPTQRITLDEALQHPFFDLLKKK
Excerpt: as §1

The subject of series [5] is eIF4E phosphorylation at Serine 209 in the human embryonic kidney (HEK) 293 cell line. Put plainly: eIF4E phosphorylation in HEK 293 cells (fluorescent plate reader). The following applies: Homo sapiens, eIF4E phosphorylation at Serine 209, 2 hours exposure. Type of series: cell-based. The method, boiled down:
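HEK-293 cells were treated with compound for 2 h, then methanol-fixed and Triton-permeabilized. Ser209 phospho-eIF4E was stained with primary antibody (1:2000, overnight) and an Alexa Fluor 488 secondary. Fluorescence was normalized to DAPI, and IC50 was fitted from concentration-response data.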

The subject of series [6] is eIF4E phosphorylation at Serine 209 in the human osteosarcoma (U2OS) cell line. Put plainly: eIF4E phosphorylation in U2OS cells (fluorescent plate reader). It counts as cell-based. The note with it: Homo sapiens, U2OS; eIF4E phosphorylation at Serine 209, 2 hours exposure. The method, then:
The ability of MNK inhibitors described herein to inhibit eIF4E phosphorylation at Serine 209 in the human osteosarcoma (U2OS) cell line was tested by exposing the cells to compound for 2 hours and then measuring eIF4E phosphorylation with a phosphorylation-specific antibody in a fluorescent plate reader.

The test system of the next series is P-gp (human MDR1, ABCB1). Put plainly: MDCK-MDR1 permeability (blood brain barrier permeability). Type of series: in vitro ADME, Canine. The following applies: dog; for Papp A→B at 5 μM: MDCK-MDR1, Apical to basolateral transport; for Papp A→B at 5 μM / Papp B→A at 5 μM: average of two experiments; for Papp B→A at 5 μM: MDCK-MDR1, Basolateral to apical transport; for efflux ratio at 5 μM: MDCK-MDR1, 5 μM, read-out: Efflux ratio (ratio B-A/A-B).

A further series deals with MNK2 (Homo sapiens, UniProt Q9HBH9). Put plainly: MNK2 substrate phosphorylation assay. Type of series: biochemical. The note with it: recombinant human kinase.
Chain of MNK2 (Q9HBH9 whole entry): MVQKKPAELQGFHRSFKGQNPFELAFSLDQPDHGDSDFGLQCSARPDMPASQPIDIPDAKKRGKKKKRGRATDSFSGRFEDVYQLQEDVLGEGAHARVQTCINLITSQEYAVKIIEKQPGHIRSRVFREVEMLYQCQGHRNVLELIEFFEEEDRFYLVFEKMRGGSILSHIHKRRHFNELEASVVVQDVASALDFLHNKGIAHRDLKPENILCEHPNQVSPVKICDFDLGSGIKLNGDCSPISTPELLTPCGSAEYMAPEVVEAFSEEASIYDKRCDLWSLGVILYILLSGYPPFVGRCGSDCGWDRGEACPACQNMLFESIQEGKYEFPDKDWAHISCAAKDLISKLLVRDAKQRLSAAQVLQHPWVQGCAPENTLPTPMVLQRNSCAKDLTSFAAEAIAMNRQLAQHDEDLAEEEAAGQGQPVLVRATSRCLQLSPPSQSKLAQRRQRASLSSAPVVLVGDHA
The next series deals with MNK1 (Homo sapiens, UniProt Q9BUB5). Put plainly: MNK1 substrate phosphorylation assay. Type of series: biochemical. The following applies: recombinant human kinase.
Chain of MNK1 (Q9BUB5 whole entry): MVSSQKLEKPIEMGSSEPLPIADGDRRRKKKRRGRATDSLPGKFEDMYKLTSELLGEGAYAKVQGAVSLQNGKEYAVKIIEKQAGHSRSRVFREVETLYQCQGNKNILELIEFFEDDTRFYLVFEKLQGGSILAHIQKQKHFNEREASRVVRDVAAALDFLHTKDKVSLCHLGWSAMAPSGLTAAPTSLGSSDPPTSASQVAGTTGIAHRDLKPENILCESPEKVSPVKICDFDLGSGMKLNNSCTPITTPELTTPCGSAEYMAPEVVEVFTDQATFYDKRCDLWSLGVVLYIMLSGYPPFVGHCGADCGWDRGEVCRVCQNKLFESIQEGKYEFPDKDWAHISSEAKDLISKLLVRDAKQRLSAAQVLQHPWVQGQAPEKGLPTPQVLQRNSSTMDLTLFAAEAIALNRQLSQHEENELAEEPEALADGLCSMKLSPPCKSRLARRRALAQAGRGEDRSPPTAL
Series [7] can be described thus: Liver microsome stability, human. The following applies: liver microsomes; for half-life: read-out: Human liver microsomes t1/2. Type of series: in vitro ADME.
Series [8] in a line: Liver microsome stability, rat. The note with it: Rat liver microsomes (#); for microsomal CLint: read-out: CLint rodent; for half-life: read-out: Rodent liver microsomes t1/2. Type of series: in vitro ADME.
Series [9] can be described thus: Liver microsome stability, mouse. Type of series: in vitro ADME. The following applies: Mouse liver microsomes (*). For orientation: Liver microsomes are a subcellular fraction often used to study metabolism.

On to `Cc1cc(Nc2cc(NC(=O)C3CC3)ncn2)c(=O)n2c1C(=O)NC21CCCC1` [Compound 4ET-03-017, N-(6-((8′-Methyl-1′,5′-dioxo-1′,5′-dihydro-2′H-spiro[cyclopentane-1,3′-imidazo[1,5-a]pyridin]-6′-yl)amino)pyrimidin-4-yl)cyclopropanecarboxamide], for which the remaining activity at 1 µM was 9% in series [1], 100% in [2] and 17% in series [4]. Besides, the IC50 in series [3] amounted to 1 nM; in series [5] (HEK293), 0.9 nM; in [6], 0.4 nM. The Papp A→B at 5 μM in the series with P-gp (human MDR1, ABCB1) stood at 16.3 ×10⁻⁶ cm/s. The same molecule displayed a Papp B→A at 5 μM with P-gp (human MDR1, ABCB1) of 58.9 ×10⁻⁶ cm/s.

For `Cc1cc(Nc2cc(N)ncn2)c(=O)n2c1C(=O)NC21CCOCC1` [Compound 4ET-01-002, 6-((6-Aminopyrimidin-4-yl)amino)-8-methyl-2′,3′,5′,6′-tetrahydro-2H-spiro[imidazo[1,5-a]pyridine-3,4′-pyran]-1,5-dione], the remaining activity at 1 µM in series [1] worked out at 72%; in series [2], 97%; in [4], 100%. Also, the IC50 on MNK2 was 2.6 nM; in series [3], 33 nM; at MNK1, 27.9 nM; in [5] (HEK293, 2 h) it was 18.5 nM; in [6] it was 6.9 nM. Also, the microsomal CLint in series [7] amounted to 2.17 µL/min/mg; in [8], 2.7 µL/min/mg. For the same molecule, the half-life turned out to be 10.7 h in series [7] and 8.57 h in [8]. In addition, the efflux ratio at 5 μM in the series with P-gp (human MDR1, ABCB1) was 2.2. Also, the Papp A→B at 5 μM in the series with P-gp (human MDR1, ABCB1) turned out to be 2.6 ×10⁻⁶ cm/s. The Papp B→A at 5 μM in the series with P-gp (human MDR1, ABCB1) is 5.6 ×10⁻⁶ cm/s.

For the molecule `Cc1cc(Nc2cc(NC(=O)C3CC3)ncn2)c(=O)n2c1C(=O)NC21CCC(O)CC1` (stereo not shown) [Compound 4ET-03-015, N-(6-((4-Hydroxy-8′-methyl-1′,5′-dioxo-1′,5′-dihydro-2′H-spiro[cyclohexane-1,3′-imidazo[1,5-a]pyridin]-6′-yl)amino)pyrimidin-4-yl)cyclopropanecarboxamide], the values for the remaining activity at 1 µM in [1], in series [2] and in series [4] were 16%, 100% and 14%, respectively. Besides, the IC50 on MNK2 is 1.4 nM; in series [3] it was 3 nM; at MNK1 it was 19.1 nM; in [5] (HEK293, 2 h) it was 2.7 nM; in series [6], 2.4 nM. For the same molecule, the microsomal CLint in series [7] was found to be 2.73 µL/min/mg; in [8] it was 3.18 µL/min/mg. The half-life in series [7] amounted to 8.45 h; in series [8], 7.27 h. In the series with P-gp (human MDR1, ABCB1), the efflux ratio at 5 μM was found to be 10. In addition, the Papp A→B at 5 μM in the series on P-gp (human MDR1, ABCB1) worked out at 0.9 ×10⁻⁶ cm/s. This molecule gave an apparent permeability from basolateral to apical (Papp B→A) at 5 μM in the series with P-gp (human MDR1, ABCB1) of 8.7 ×10⁻⁶ cm/s.

As to `Cc1cc(Nc2cc(N)ncn2)c(=O)n2c1C(=O)NC21CCC(O)CC1` (stereo not shown) [Compound 4ET-01-005, 6′-((6-Aminopyrimidin-4-yl)amino)-4-hydroxy-8′-methyl-2′H-spiro[cyclohexane-1,3′-imidazo[1,5-a]pyridine]-1′,5′-dione], the values for the microsomal CLint in series [9] (read-out: CLint rodent) and in [7] were 3.53 µL/min/mg and 3.6 µL/min/mg, respectively. The half-life in [9] (mouse, liver microsomes, Table 11a, read-out: Rodent liver microsomes t1/2) was found to be 6.55 h; in [7], 6.42 h. In addition, the remaining activity at 1 µM in [1] worked out at 41%; in [2], 100%; in series [4], 63%. Further, the IC50 worked out at 26 nM in [3], 9.8 nM at MNK1, 8.2 nM in series [5] (HEK293) and 8.2 nM in series [6]. Besides, the efflux ratio at 5 μM in the series on P-gp (human MDR1, ABCB1) stood at 2.7. In the series with P-gp (human MDR1, ABCB1), this molecule registered a Papp A→B at 5 μM of 0.2 ×10⁻⁶ cm/s. In the series on P-gp (human MDR1, ABCB1), this molecule returned a Papp B→A at 5 μM of 0.6 ×10⁻⁶ cm/s.
